Reference: patent US20140249135A1, “PIM KINASE INHIBITORS AND METHODS OF THEIR USE” (NOVARTIS AG, priority 2007, published 2014)
Where two headings read alike, the source gives them in different places.

Legend:
[1] = molecular target: T1, human full length PKCE enzyme (Homo sapiens, UniProt Q02156); assay: In vitro PKCE assay; assay type: biochemical; details: 10 nM enzyme, 40 uM peptide substrate, 20 uM ATP, KinaseGlo Plus readout; read-out: PKCε IC50
T1 construct: human full length PKCE enzyme purchased from InVitrogen; purchased InVitrogen
T1 sequence (Q02156 1-737): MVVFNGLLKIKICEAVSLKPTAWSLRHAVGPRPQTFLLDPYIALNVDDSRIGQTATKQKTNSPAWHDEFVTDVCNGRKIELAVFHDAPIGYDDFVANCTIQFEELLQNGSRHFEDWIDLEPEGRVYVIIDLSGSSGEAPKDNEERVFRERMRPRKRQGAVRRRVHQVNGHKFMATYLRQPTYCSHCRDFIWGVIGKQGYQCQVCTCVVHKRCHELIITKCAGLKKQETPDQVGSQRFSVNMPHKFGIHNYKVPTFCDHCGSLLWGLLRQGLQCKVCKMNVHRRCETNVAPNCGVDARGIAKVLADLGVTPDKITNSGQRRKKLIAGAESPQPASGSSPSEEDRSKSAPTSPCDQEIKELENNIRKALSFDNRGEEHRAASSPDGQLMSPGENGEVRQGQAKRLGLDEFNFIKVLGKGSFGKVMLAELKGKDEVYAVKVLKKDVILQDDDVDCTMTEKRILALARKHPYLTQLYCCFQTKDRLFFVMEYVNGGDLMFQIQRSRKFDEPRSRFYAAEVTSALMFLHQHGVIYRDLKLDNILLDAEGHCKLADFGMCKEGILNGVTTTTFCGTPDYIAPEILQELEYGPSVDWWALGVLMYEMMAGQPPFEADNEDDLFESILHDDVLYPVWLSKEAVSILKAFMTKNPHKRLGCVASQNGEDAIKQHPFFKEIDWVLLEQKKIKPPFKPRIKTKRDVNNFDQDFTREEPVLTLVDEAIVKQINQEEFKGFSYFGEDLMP

[2] = molecular target: Pim1 kinase (Homo sapiens, UniProt P11309); assay: Pim1 ATP depletion assay; assay type: biochemical; details: Pim1 ATP depletion assay;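 also: Luciferase-luciferin luminescence readout of residual ATP after PIM1 transfers phosphate to a peptide substrate, 40 µM ATP added, reaction run to roughly half ATP consumption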
[3] = tested on: HEL 92.1.7 cells; assay: Cell proliferation assay (CellTiter-Glo), HEL 92.1.7; assay type: cell-based; details: Homo sapiens
Procedure: HEL 92.1.7 cells (ATTC No. TIB-180, an erythroleukemia line derived from malignant peripheral blood), MV4-11 cells (ATCC No. CRL-9591, a human acute monocytic leukemia line) and PC3 cells (ATCC No. CRL-1435, a human prostatic adenocarcinoma line) were cultured in RPMI1640 supplemented with 10% FBS, sodium pyruvate and antibiotics. Cells were plated in the same medium at a density of 1000 cells per well into 96 well tissue culture plates, with outside wells vacant, on the day of assay.
Test compounds supplied in DMSO were diluted into DMSO at 500 times the desired final concentrations before dilution into culture media to 2 times final concentrations. Equal volumes of 2× compounds were added to the cells in 96 well plates and incubated at 37° C. for 3 days.
After 3 days plates were equilibrated to room temperature and equal volume of CellTiter-Glow Reagent (Promega) was added to the culture wells. The plates were agitated briefly and luminescent signal was measured with luminometer. The percent inhibition of the signal seen in cells treated with DMSO alone vs. cells treated with control compound was calculated and used to determine EC50 values (i.e., the concentration of a test compound that is required to obtain 50% of the maximum effect in the cells) for tested compounds, as shown in Example 763.

[4] = molecular target: Pim3 kinase (Homo sapiens, UniProt Q86V86); assay: Pim3 ATP depletion assay; assay type: biochemical
[5] = molecular target: Pim2 kinase (Homo sapiens, UniProt Q9P1W9); assay: Pim2 ATP depletion assay; assay type: biochemical;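 also: Luciferase-based luminescent readout of ATP remaining after PIM2 phosphorylates a BAD peptide, final 5 nM enzyme, 4 µM ATP, 10 µM peptide, 2.5% DMSO, run to roughly half ATP consumption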
Pim2 kinase, sequence (Q9P1W9 whole entry): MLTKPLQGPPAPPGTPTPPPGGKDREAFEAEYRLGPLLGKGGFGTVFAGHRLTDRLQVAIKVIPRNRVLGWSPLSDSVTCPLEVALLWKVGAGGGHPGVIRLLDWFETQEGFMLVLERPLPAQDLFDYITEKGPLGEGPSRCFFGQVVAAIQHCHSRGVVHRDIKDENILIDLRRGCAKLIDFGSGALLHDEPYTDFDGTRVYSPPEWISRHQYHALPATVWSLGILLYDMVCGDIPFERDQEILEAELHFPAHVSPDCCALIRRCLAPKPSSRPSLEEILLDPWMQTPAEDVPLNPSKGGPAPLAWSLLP

Pim1 kinase, sequence (P11309 whole entry): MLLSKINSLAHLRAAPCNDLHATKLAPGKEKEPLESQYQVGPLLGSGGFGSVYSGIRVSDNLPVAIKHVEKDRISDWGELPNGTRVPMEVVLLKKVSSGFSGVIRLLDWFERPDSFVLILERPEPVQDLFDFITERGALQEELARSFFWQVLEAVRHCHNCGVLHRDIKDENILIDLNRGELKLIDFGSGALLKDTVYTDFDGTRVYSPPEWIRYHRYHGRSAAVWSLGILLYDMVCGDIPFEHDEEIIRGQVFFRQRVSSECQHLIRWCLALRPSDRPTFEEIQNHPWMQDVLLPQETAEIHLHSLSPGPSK

| IC50 [1] | IC50 ([2]; read-out: IC50 (μM) PIM1) | IC50 ([4]; read-out: IC50 (μM) PIM3) | IC50 ([5]; read-out: IC50 (μM) PIM2) | IC50 ([2]; read-out: PIM1 IC50) | IC50 ([4]; read-out: PIM3 IC50) | IC50 ([5]; read-out: PIM2 IC50) | Structure (SMILES) | EC50 ([3]; read-out: EC50 (μM) HEL 92.1.7) | EC50 ([3]; read-out: HEL 92.1.7 EC50) |
| --- | --- | --- | --- | --- | --- | --- | --- | --- | --- |
| 1 to 10 µM | < 1 µM | < 1 µM | < 1 µM | – | – | – | Nc1ncc(Br)nc1C(=O)Nc1[nH]c(=O)ncc1N1CCCC(F)C1 (stereo not drawn) [Example 155, 3-amino-6-bromo-N-[5-(3-fluoropiperidin-1-yl)-2-oxo-2,3-dihydropyrimidin-4-yl]pyrazine-2-carboxamide] | 5 to 10 µM | – |
| 1 to 10 µM | < 1 µM | < 1 µM | < 1 µM | – | – | – | Nc1ncc(Br)nc1C(=O)Nc1[nH]c(=O)ncc1-c1cccs1 [Example 142, 3-amino-6-bromo-N-[2-oxo-5-(2-thienyl)-2,3-dihydro-pyrimidin-4-yl]pyrazine-2-carboxamide] | 1 to 5 µM | – |
| 1 to 10 µM | < 1 µM | < 1 µM | < 1 µM | – | – | – | Nc1ncc(Br)nc1C(=O)Nc1[nH]c(=O)ncc1N1CCC(F)CC1 [Example 150, 3-amino-6-bromo-N-[5-(4-fluoropiperidin-1-yl)-2-oxo-2,3-dihydropyrimidin-4-yl]pyrazine-2-carboxamide] | 1 to 5 µM | – |
| 1 to 10 µM | – | – | – | < 1 µM | < 1 µM | < 1 µM | Nc1ncc(-c2ccccc2F)nc1C(=O)Nc1[nH]c(=O)ncc1N1CCCCC1 [Example 592, 3-amino-6-(2-fluoro-phenyl)-pyrazine-2-carboxylic acid (2-oxo-5-piperidin-1-yl-2,3-dihydro-pyrimidin-4-yl)-amide] | – | < 1 µM |
| > 25 µM | < 1 µM | < 1 µM | < 1 µM | – | – | – | Nc1ncc(Br)nc1C(=O)Nc1[nH]c(=O)ncc1N1CCC(F)(F)CC1 [Example 157, 3-amino-6-bromo-N-[5-(4,4-difluoropiperidin-1-yl)-2-oxo-2,3-dihydropyrimidin-4-yl]-pyrazine-2-carboxamide] | > 10 µM | – |
| < 1 µM | < 1 µM | < 1 µM | < 1 µM | – | – | – | Nc1ncc(Br)nc1C(=O)Nc1[nH]c(=O)ncc1N1CCCC(N)C1 (stereo not drawn) [Example 239, 3-amino-N-[5-(3-aminopiperidin-1-yl)-2-oxo-2,3-dihydro-pyrimidin-4-yl]-6-bromo-pyrazine-2-carboxamide] | > 10 µM | – |
| < 1 µM | < 1 µM | < 1 µM | < 1 µM | – | – | – | Nc1ncc(Br)nc1C(=O)Nc1[nH]c(=O)ncc1N1CCCC(C(F)(F)F)C1 (stereo not drawn) [Example 147, 3-amino-6-bromo-N-{2-oxo-5-[3-(trifluoromethyl)piperidin-1-yl]-2,3-dihydropyrimidin-4-yl}-pyrazine-2-carboxamide] | 5 to 10 µM | – |
| < 1 µM | < 1 µM | < 1 µM | < 1 µM | – | – | – | Nc1ncc(-c2ccccc2F)nc1C(=O)Nc1[nH]c(=O)ncc1N1CCCC(N)C1 (stereo not drawn) [Example 401, 3-amino-6-(2-fluoro-phenyl)-pyrazine-2-carboxylic acid [5-(3-amino-piperidin-1-yl)-2-oxo-2,3-dihydro-pyrimidin-4-yl]-amide] | 5 to 10 µM | – |
| 10 to 25 µM | < 1 µM | < 1 µM | < 1 µM | – | – | – | Nc1nc(N)c(C(=O)Nc2[nH]c(=O)ncc2N2CCCC(C(F)(F)F)C2)nc1Cl (stereo not drawn) [Example 148, 3,5-diamino-6-chloro-N-{2-oxo-5-[3-(trifluoromethyl)piperidin-1-yl]-2,3-dihydropyrimidin-4-yl}pyrazine-2-carboxamide] | > 10 µM | – |
| < 1 µM | < 1 µM | < 1 µM | < 1 µM | – | – | – | Nc1nccnc1C(=O)Nc1[nH]c(=O)ncc1N1CCCC(C(F)(F)F)C1 (stereo not drawn) [Example 146, 3-amino-N-{2-oxo-5-[3-(trifluoromethyl)piperidin-1-yl]-2,3-dihydropyrimidin-4-yl}-pyrazine-2-carboxamide] | > 10 µM | – |

Continued, compound first:

| Structure (SMILES) | IC50 [1] | IC50 ([2]; read-out: IC50 (μM) PIM1) | IC50 ([4]; read-out: IC50 (μM) PIM3) | IC50 ([5]; read-out: IC50 (μM) PIM2) | IC50 ([2]; read-out: PIM1 IC50) | IC50 ([4]; read-out: PIM3 IC50) | IC50 ([5]; read-out: PIM2 IC50) | EC50 ([3]; read-out: EC50 (μM) HEL 92.1.7) | EC50 ([3]; read-out: HEL 92.1.7 EC50) |
| --- | --- | --- | --- | --- | --- | --- | --- | --- | --- |
| Nc1ncc(-c2ccc(Cl)cc2)nc1C(=O)Nc1cnccc1N1CCCC(N)C1 (stereo not drawn) [Example 353, 3-amino-6-(4-chloro-phenyl)-pyrazine-2-carboxylic acid (3-amino-3,4,5,6-tetrahydro-2H-[1,4′]bipyridinyl-3′-yl)-amide] | < 1 µM | < 1 µM | < 1 µM | < 1 µM | – | – | – | < 1 µM | – |
| Nc1ncc(Br)nc1C(=O)Nc1[nH]c(=O)ncc1-c1nccs1 [Example 143, 3-amino-6-bromo-N-[2-oxo-5-(1,3-thiazol-2-yl)-2,3-dihydro-pyrimidin-4-yl]pyrazine-2-carboxamide] | > 25 µM | < 1 µM | < 1 µM | < 1 µM | – | – | – | 1 to 5 µM | – |
| Nc1ncc(Br)nc1C(=O)Nc1[nH]c(=O)ncc1-c1ccccn1 [Example 145, 3-amino-6-bromo-N-(2-oxo-5-pyridin-2-yl-2,3-dihydro-pyrimidin-4-yl)pyrazine-2-carboxamide] | > 25 µM | < 1 µM | < 1 µM | < 1 µM | – | – | – | 1 to 5 µM | – |
| NCC1CCCN(c2ccncc2NC(=O)c2nc(Br)cnc2N)C1 (stereo not drawn) [Example 180, 3-amino-N-{4-[3-(amino-methyl)piperidin-1-yl]pyridin-3-yl}-6-bromopyrazine-2-carboxamide] | < 1 µM | < 1 µM | < 1 µM | < 1 µM | – | – | – | < 1 µM | – |
| Nc1ncc(-c2ccccc2Cl)nc1C(=O)Nc1[nH]c(=O)ncc1N1CCCC(N)C1 (stereo not drawn) [Example 402, 3-amino-6-(2-chloro-phenyl)-pyrazine-2-carboxylic acid [5-(3-amino-piperidin-1-yl)-2-oxo-2,3-dihydro-pyrimidin-4-yl]-amide] | 1 to 10 µM | < 1 µM | < 1 µM | < 1 µM | – | – | – | 5 to 10 µM | – |
| Nc1ncc(-c2ccccc2F)nc1C(=O)Nc1cnccc1N1CCCC(N)C1 (stereo not drawn) [Example 350, 3-amino-6-(2-fluoro-phenyl)-pyrazine-2-carboxylic acid (3-amino-3,4,5,6-tetrahydro-2H-[1,4′]bipyridinyl-3′-yl)-amide] | < 1 µM | < 1 µM | < 1 µM | < 1 µM | – | – | – | < 1 µM | – |
| Nc1ncc(-c2cccnc2)nc1C(=O)Nc1cnccc1N1CCCC(N)C1 (stereo not drawn) [Example 356, 3-amino-6-pyridin-3-yl-pyrazine-2-carboxylic acid (3-amino-3,4,5,6-tetrahydro-2H-[1,4′]bipyridinyl-3′-yl)-amide] | 1 to 10 µM | < 1 µM | < 1 µM | < 1 µM | – | – | – | > 10 µM | – |
| Nc1ncc(-c2cn[nH]c2)nc1C(=O)Nc1cnccc1N1CCCC(N)C1 (stereo not drawn) [Example 355, 3-amino-6-(1H-pyrazol-4-yl)-pyrazine-2-carboxylic acid (3-amino-3,4,5,6-tetrahydro-2H-[1,4′]bipyridinyl-3′-yl)-amide] | 1 to 10 µM | < 1 µM | < 1 µM | < 1 µM | – | – | – | > 10 µM | – |
| Nc1ncc(-c2cncnc2)nc1C(=O)Nc1cnccc1N1CCCC(N)C1 (stereo not drawn) [Example 357, 3-amino-6-pyrimidin-5-yl-pyrazine-2-carboxylic acid (3-amino-3,4,5,6-tetrahydro-2H-[1,4′]bipyridinyl-3′-yl)-amide] | 1 to 10 µM | < 1 µM | < 1 µM | < 1 µM | – | – | – | 1 to 5 µM | – |
| Nc1nccnc1C(=O)Nc1cnccc1N1CCC[C@@H](N)C1 [Example 177, 3-amino-N-{4-[(3R)-3-amino-piperidin-1-yl]pyridin-3-yl}pyrazine-2-carboxamide] | < 1 µM | – | < 1 µM | < 1 µM | – | – | – | > 10 µM | – |
